From patent publication US20220363689A1, “INHIBITOR OF BTK AND MUTANTS THEREOF” (Newave Pharmaceutical Inc., priority 2019, published 2022)

How the values were obtained:
Type in all cases: biochemical
C481S Btk = C481S Btk (Homo sapiens, UniProt Q06187, C481S); assay: Caliper-based kinase assay, C481S BTK; conditions: 0.5 nM enzyme, ATP 16 μM, room temperature 3 h; read-out: C481S BTK IC50 (nM) (reversible inhibition)
Description: (§1) A Caliper-based kinase assay (Caliper Life Sciences, Hopkinton, Mass.) was used to measure inhibition of WT and […] Btk kinase activity of a compound of the present disclosure. […] The reaction was then terminated with EDTA, final concentration 20 mM and the phosphorylated reaction product was quantified on a Caliper Desktop Profiler (Caliper LabChip 3000).

WT BTK [1] = target: T1, WT BTK (Homo sapiens, UniProt Q06187); assay: In vitro dialysis assay (irreversibility assay), WT BTK; conditions: reversible or irreversible/covalent inhibition after 24 h dialysis
Description: The compound-enzyme complex was dialyzed against the same buffer supplemented with 40 mM ATP for 24 hr. Cumulative dialysis factor>160,000×. After dialysis, the BTK activity was measured in the presence […] and 1 mM substrate peptide and compared to that in non-dialyzed samples. Assay buffer: 100 mM HEPES, pH7.5; […]; 5 mM MgCl2; 1 mM DTT. In this study, Ibrutiib (a FDA approved irreversible BTK inhibitor) was used as a positive control and Saurosporine (a reversible BTK inhibitor) was used as a negative control.

WT BTK [2] = target: T1, WT BTK; assay: Caliper-based kinase assay, WT BTK; conditions: 0.5 nM enzyme, ATP 16 μM, room temperature 3 h; read-out: WT BTK IC50 (nM) (irreversible inhibition)
Description: as §1

Chain of C481S Btk (Q06187 whole entry C481S): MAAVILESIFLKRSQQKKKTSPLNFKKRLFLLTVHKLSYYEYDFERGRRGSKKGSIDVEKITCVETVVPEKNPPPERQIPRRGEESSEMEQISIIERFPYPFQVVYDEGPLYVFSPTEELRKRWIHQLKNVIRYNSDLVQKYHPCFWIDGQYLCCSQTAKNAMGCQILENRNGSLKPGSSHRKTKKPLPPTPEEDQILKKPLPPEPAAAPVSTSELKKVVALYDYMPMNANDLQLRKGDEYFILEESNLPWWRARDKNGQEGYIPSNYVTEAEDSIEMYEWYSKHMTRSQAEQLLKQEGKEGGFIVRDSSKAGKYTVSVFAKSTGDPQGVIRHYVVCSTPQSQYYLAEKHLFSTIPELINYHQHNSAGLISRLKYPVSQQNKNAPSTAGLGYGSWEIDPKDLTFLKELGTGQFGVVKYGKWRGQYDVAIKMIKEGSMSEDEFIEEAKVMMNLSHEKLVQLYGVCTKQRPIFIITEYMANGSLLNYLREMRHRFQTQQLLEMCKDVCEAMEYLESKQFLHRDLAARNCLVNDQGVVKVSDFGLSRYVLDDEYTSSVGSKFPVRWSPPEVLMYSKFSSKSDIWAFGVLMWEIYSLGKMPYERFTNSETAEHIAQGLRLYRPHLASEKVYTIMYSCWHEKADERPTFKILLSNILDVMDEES
T1 sequence (Q06187 whole entry): as the sequence (Q06187 whole entry C481S) above, with S481C counted along it

Row | SMILES | IC50 (C481S Btk) [nM] | Conclusion (WT BTK) (WT BTK [1]) | IC50 (WT BTK [2]) [nM]
1 | C=CC(=O)Nc1cc(Nc2nc(-c3ccnc(N4CCn5c(cc6c5CC(C)(C)C6)C4=O)c3CO)cn(C)c2=O)ccc1N1CCC(N2CCOCC2)CC1C (stereo not drawn) [Example 12, N-(5-((6-(2-(7,7-dimethyl-1-oxo-1,3,4,6,7,8-hexahydro-2H-cyclopenta[4,5]pyrrolo[1,2-a]pyrazin-2-yl)-3-(hydroxymethyl)pyridin-4-yl)-4-methyl-3-oxo-3,4-dihydropyrazin-2-yl)amino)-2-(2-methyl-4-morpholinopiperidin-1-yl)phenyl)acrylamide] | 0.25 | Irreversible/covalent inhibition | 0.046
2 | C=CC(=O)Nc1cc(Nc2nc(-c3ccnc(N4CCn5c(cc6c5CC(C)(C)C6)C4=O)c3C)cn(C)c2=O)ccc1N1CCC(N2CCOCC2)CC1.Cl [Example 18, N-(5-[[6-(2-[4,4-dimethyl-9-oxo-1,10-diazatricyclo[6.4.0.0^[2,6]]dodeca-2(6),7-dien-10-yl]-3-methylpyridin-4-yl)-4-methyl-3-oxopyrazin-2-yl]amino]-2-[4-(morpholin-4-yl)piperidin-1-yl]phenyl)prop-2-enamide hydrochloride] | 11.4 | Irreversible/covalent inhibition | 0.18
3 | C=CC(=O)Nc1cc(Nc2nc(-c3ccnc(N4CCn5c(cc6c5CC(C)(C)C6)C4=O)c3CO)cn(C)c2=O)ccc1N1CCC(N2CCC(F)(F)CC2)CC1 [Example 20, N-(2-[4,4-difluoro-[1,4′-bipiperidin]-1′-yl]-5-[[6-(2-[4,4-dimethyl-9-oxo-1,10-diazatricyclo[6.4.0.0^[2,6]]dodeca-2(6),7-dien-10-yl]-3-(hydroxymethyl)pyridin-4-yl)-4-methyl-3-oxopyrazin-2-yl]amino]phenyl)prop-2-enamide] | 0.4 | Irreversible/covalent inhibition | 0.053
4 | C=CC(=O)Nc1cc(Nc2nc(-c3ccnc(N4CCn5c(cc6c5CC(C)(C)C6)C4=O)c3CO)cn(C)c2=O)ccc1N1CCN(C2CCOCC2)C[C@@H]1C [Example 22, N-(5-[[6-(2-[4,4-dimethyl-9-oxo-1,10-diazatricyclo[6.4.0.0^[2,6]]dodeca-2(6),7-dien-10-yl]-3-(hydroxymethyl)pyridin-4-yl)-4-methyl-3-oxopyrazin-2-yl]amino]-2-[(2S)-2-methyl-4-(oxan-4-yl)piperazin-1-yl]phenyl)prop-2-enamide] | 0.48 | Irreversible/covalent inhibition | 0.046

The remaining lines, values ahead:

Row | IC50 (C481S Btk) [nM] | Conclusion (WT BTK) (WT BTK [1]) | IC50 (WT BTK [2]) [nM] | SMILES
5 | 7.1 | Irreversible/covalent inhibition | 0.1 | C=CC(=O)Nc1cc(Nc2nc(-c3ccnc(N4CCn5c(cc6c5CC(C)(C)C6)C4=O)c3C)cn(C)c2=O)ccc1N1CCC(N2CCOCC2)CC1C [Example 17, N-(5-[[6-(2-[4,4-dimethyl-9-oxo-1,10-diazatricyclo[6.4.0.0^[2,6]]dodeca-2(6),7-dien-10-yl]-3-methylpyridin-4-yl)-4-methyl-3-oxopyrazin-2-yl]amino]-2-[(2S)-2-methyl-4-(morpholin-4-yl)piperidin-1-yl]phenyl)prop-2-enamide]
6 | 0.4 | Irreversible/covalent inhibition | 0.04 | C=CC(=O)Nc1cc(Nc2nc(-c3ccnc(N4CCn5c(cc6c5CC(C)(C)C6)C4=O)c3CO)cn(C)c2=O)ccc1N1CCC(N2CCN(C)CC2)CC1 [Example 21, N-(5-[[6-(2-[4,4-dimethyl-9-oxo-1,10-diazatricyclo[6.4.0.0^[2,6]]dodeca-2(6),7-dien-10-yl]-3-(hydroxymethyl)pyridin-4-yl)-4-methyl-3-oxopyrazin-2-yl]amino]-2-[4-(4-methylpiperazin-1-yl)piperidin-1-yl]phenyl)prop-2-enamide]
